According to US11872260B2, “Mint essential oils inhibit HRASQ61L mutant keratinocyte activity and prevent skin carcinogenesis” (ACADEMIA SINICA, priority 2018, dated 2024):

Legend:
tyrosinase in B16 cells = experiment: Western blot of tyrosinase in B16 cells; assay type: cell-based, Murine; settings: 6, 12, 24 h
Description: (§1) Cells were treated with EOs or compounds at the indicated concentrations and lysed in RIPA lysis buffer. Protein concentrations were measured by DC protein assay (Bio-Rad, United States). Western blotting was performed as described by Shyur et al. Protein samples were separated by 10 or 12% SDS-PAGE, and electro-transferred onto PVDF membranes (Merck Millipore, United States). The membranes were blocked with 5% skimmed milk in TBST for 1 h at room temperature. After washing the membranes three times with TBST, membranes were incubated with appropriate primary antibodies overnight (12-16 h) at 4° C. The membranes were washed with TBST three times, followed by incubation with horseradish peroxidase (HRP)-conjugated anti-mouse IgG or anti-rabbit IgG secondary antibodies for 2 h at room temperature. Reactive protein bands were visualized using enhanced chemiluminescent detection reagents (GE Healthcare, United States) and exposed to chemiluminescence light film (GE Healthcare, United States). The expression levels of targeted proteins were quantified by ImageJ software (National Institutes of Health, United States).

B16 melanoma cells = experiment: Depigmentation assay (melanin absorbance 405 nm); assay type: cell-based, Murine; settings: 24 h; 15 and 25 μg/mL LM-EO, 100 μg/mL KA
Description: B16 cells (1×10^6 cells/15-cm dish) were treated with vehicle (0.5% DMSO), 15 and 25 μg/mL LM-EO (LM15 and LM25), or 100 μg/mL kojic acid (KA100) for 6, 12, 24 h. After washing with PBS for two times, the cells were harvested by cell scrapper and centrifugation. The cell pellets were then taken a photo before dissolved in 1 N NaOH at 60° C. for 1 h. The volume of NaOH used to dissolve the cell pellets were adjusted based on the cell populations to yield the equal concentration. The absorbance was then measured at 405 nm.

[1] = system: epidermis of mouse dorsal skin; experiment: Histopathology (H&E) of mouse skin from two-stage skin carcinogenesis; assay type: in vivo, FVB mice; settings: intraperitoneal PLX4032 in DMBA/TPA skin
patients = patients treated with PLX4032; cited from earlier work
cdc2 in PDV cells = experiment: Western blot p-cdc2/cdc2; assay type: cell-based, mouse; settings: 24 h; KWM-EO 75 μg/mL, LM-EO 75 μg/mL, L+C 60 μg/mL, PLX4032 0.5 μM, each alone
Description: as §1

[2] = system: DMBA/TPA/PLX4032-induced skin papilloma; experiment: Two-stage skin carcinogenesis, DMBA/TPA accelerated by PLX4032; assay type: in vivo, FVB/NJNarl mice
Description: Female FVB/NJNarl mice (5-6 weeks old) were randomized into 9 groups, each group contained 8 mice. Mice had their back hair shaved three days before topical application of 25 μg 7,12-dimethylbenz[a]anthracene (DMBA) in 200 μL acetone. The first week after tumor initiation, 4 μg of 12-O-tetradecanoylphorbol-13-acatate (TPA) in 200 μL acetone was topically applied twice a week to the shaved back skin for 12 weeks. Mice were treated with the indicated concentrations of mint EOs or compounds (in 200 μL acetone) twice a week by topical application the day after TPA treatment for 12 weeks. Tumor size of more than 1 mm diameter was counted every week. After mice were sacrificed, internal organs (heart, liver, spleen, lung, and kidneys), serum, skin and papillomas were collected and fixed with 10% formalin or stored at −80° C.

SMILES | tyrosinase expression (tyrosinase in B16 cells) | depigmentation effect (melanin) (B16 melanoma cells) | proliferation and hyperplasia of the epidermis, effect of PLX4032 [1] | patients developing squamous cell carcinoma (SCC) and keratoacanthoma (KA) (patients) | ratio of phospho-cdc2 to cdc2, increase vs vehicle (cdc2 in PDV cells) | swelling of the spleen, effect of PLX4032 ([2]; PLX4032 in DMBA/TPA mice) | tumor multiplicity, effect of PLX4032 on DMBA/TPA mice ([2]; intraperitoneal PLX4032)
O=c1cc(CO)occ1O [KA, Kojic acid] | time-dependently inhibited tyrosinase expression | depigmentation effect with statistical significance | – | – | – | – | –
CCCS(=O)(=O)Nc1ccc(F)c(C(=O)c2c[nH]c3ncc(-c4ccc(Cl)cc4)cc23)c1F [PLX4032, vemurafenib] | – | – | exacerbated the proliferation and hyperplasia of the epidermis | 20-30% | 2.1 fold | exacerbated the swelling of the spleen | greatly increased the tumor multiplicity
